# Measured values from patent publication US20260262643A1, “HERBICIDAL BENZOXAZINES” (FMC CORPORATION, priority 2022, published 2026).
# How the values were obtained:
# [1] = tested on: barnyardgrass; test: Test C preemergence; type: in vivo, Echinochloa crusgalli
# Procedure, shortened: (§1)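 Seeds in loam–sand blend received preemergence directed soil spray of test chemicals in non-phytotoxic solvent with surfactant; postemergence treatment was applied at one- to two-leaf stage (2–10 cm). After 10 days in greenhouse, injury rated visually versus untreated controls, 0 (no effect) to 100 (complete control).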
# [2] = tested on: blackgrass; test: Test C preemergence; type: in vivo, Alopecurus myosuroides
# Procedure, shortened: as §1
# [3] = tested on: corn; test: Test C preemergence; type: in vivo, Zea mays
# Procedure, shortened: as §1
# [4] = tested on: foxtail, giant; test: Test C preemergence; type: in vivo, Setaria faberi
# Procedure, shortened: as §1
# [5] = tested on: kochia; test: Test C preemergence; type: in vivo, Bassia scoparia
# Procedure, shortened: as §1
# [6] = tested on: oat, wild; test: Test C preemergence; type: in vivo, Avena fatua
# Procedure, shortened: as §1
# [7] = tested on: pigweed, palmer; test: Test C preemergence; type: in vivo, Amaranthus palmeri
# Procedure, shortened: as §1
# [8] = tested on: ragweed; test: Test C preemergence; type: in vivo, Ambrosia artemisiifolia
# Procedure, shortened: as §1
# [9] = tested on: ryegrass, Italian; test: Test C preemergence; type: in vivo, Lolium multiflorum
# Procedure, shortened: as §1
# [10] = tested on: soybean; test: Test C preemergence; type: in vivo, Glycine max
# Procedure, shortened: as §1
# [11] = tested on: wheat; test: Test C preemergence; type: in vivo, Triticum aestivum
# Procedure, shortened: as §1
# [12] = tested on: barnyardgrass; test: Test C postemergence; type: in vivo, Echinochloa crusgalli; details: 10 days, 0 to 100 scale (0 no effect, 100 complete control)
# Procedure, shortened: as §1
# [13] = tested on: blackgrass; test: Test C postemergence; type: in vivo, Alopecurus myosuroides; details: 10 days, 0 to 100 scale (0 no effect, 100 complete control)
# Procedure, shortened: as §1
# [14] = tested on: corn; test: Test C postemergence; type: in vivo, Zea mays; details: 10 days, 0 to 100 scale (0 no effect, 100 complete control)
# Procedure, shortened: as §1
# [15] = tested on: foxtail, giant; test: Test C postemergence; type: in vivo, Setaria faberi; details: 10 days, 0 to 100 scale (0 no effect, 100 complete control)
# Procedure, shortened: as §1
# [16] = tested on: kochia; test: Test C postemergence; type: in vivo, Bassia scoparia; details: 10 days, 0 to 100 scale (0 no effect, 100 complete control)
# Procedure, shortened: as §1
# [17] = tested on: oat, wild; test: Test C postemergence; type: in vivo, Avena fatua; details: 10 days, 0 to 100 scale (0 no effect, 100 complete control)
# Procedure, shortened: as §1
# [18] = tested on: pigweed, palmer; test: Test C postemergence; type: in vivo, Amaranthus palmeri; details: 10 days, 0 to 100 scale (0 no effect, 100 complete control)
# Procedure, shortened: as §1
# [19] = tested on: ragweed; test: Test C postemergence; type: in vivo, Ambrosia artemisiifolia; details: 10 days, 0 to 100 scale (0 no effect, 100 complete control)
# Procedure, shortened: as §1
# [20] = tested on: ryegrass, Italian; test: Test C postemergence; type: in vivo, Lolium multiflorum; details: 10 days, 0 to 100 scale (0 no effect, 100 complete control)
# Procedure, shortened: as §1
# [21] = tested on: soybean; test: Test C postemergence; type: in vivo, Glycine max; details: 10 days, 0 to 100 scale (0 no effect, 100 complete control)
# Procedure, shortened: as §1
# [22] = tested on: wheat; test: Test C postemergence; type: in vivo, Triticum aestivum; details: 10 days, 0 to 100 scale (0 no effect, 100 complete control)
# Procedure, shortened: as §1
# [23] = tested on: galium; test: Test C postemergence; type: in vivo, Galium aparine; details: 10 days, 0 to 100 scale (0 no effect, 100 complete control)
# Procedure, shortened: as §1
# [24] = tested on: horseweed; test: Test C postemergence; type: in vivo, Erigeron canadensis; details: 10 days, 0 to 100 scale (0 no effect, 100 complete control)
# Procedure, shortened: as §1
# [25] = tested on: barnyardgrass; test: Test D flooded paddy test; type: in vivo, Echinochloa crus-galli; details: 250 g ai/ha, applied to paddy water, visual rating after 13 to 14 days, scale 0 to 100 (0 no effect, 100 complete control)
# Procedure, shortened: (§2)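 Post-flood water application at the 2-leaf stage; 3 cm flood depth kept constant; visual control rating 0–100 after 13–14 days greenhouse growth.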
# [26] = tested on: ducksalad; test: Test D flooded paddy test; type: in vivo, Heteranthera limosa; details: 250 g ai/ha, applied to paddy water, visual rating after 13 to 14 days, scale 0 to 100 (0 no effect, 100 complete control)
# Procedure, shortened: as §2
# [27] = tested on: rice; test: Test D flooded paddy test; type: in vivo, Oryza sativa; details: 250 g ai/ha, applied to paddy water, visual rating after 13 to 14 days, scale 0 to 100 (0 no effect, 100 complete control)
# Procedure, shortened: as §2
# [28] = tested on: sedge, umbrella; test: Test D flooded paddy test; type: in vivo, Cyperus difformis; details: 250 g ai/ha, applied to paddy water, visual rating after 13 to 14 days, scale 0 to 100 (0 no effect, 100 complete control)
# Procedure, shortened: as §2
# [29] = 500 g ai/ha, preemergence, 0 to 100 scale (0 no effect, 100 complete control)
# [30] = Preemergence, 125 g ai/ha, 0 to 100 scale, 0 no effect, 100 complete control
structure (smiles),measurement,setting,value
C[C@H]1CN(C(=O)c2cc(-n3cncn3)cc(C(F)(F)F)c2)c2cccc(Cl)c2O1 [Compound 335],Barnyardgrass plant response rating,[1]; [29],60
same,"Plant response rating, Barnyardgrass",[1]; [30],20
same,Blackgrass plant response rating,[2]; [29],80
same,"Plant response rating, Blackgrass",[2]; [30],20
same,Corn plant response rating,[3]; [29],10
same,"Plant response rating, Corn",[3]; [30],0
same,"Foxtail, Giant plant response rating",[4]; [29],90
same,"Plant response rating, Foxtail, Giant",[4]; [30],30
same,Kochia plant response rating,[5]; [29],20
same,"Plant response rating, Kochia",[5]; [30],0
same,"Oat, Wild plant response rating",[6]; [29],10
same,"Plant response rating, Oat, Wild",[6]; [30],0
same,"Pigweed, Palmer plant response rating",[7]; [29],60
same,"Plant response rating, Pigweed, Palmer",[7]; [30],0
same,Ragweed plant response rating,[8]; [29],0
same,"Plant response rating, Ragweed",[8]; [30],0
same,"Ryegrass, Italian plant response rating",[9]; [29],80
same,"Plant response rating, Ryegrass, Italian",[9]; [30],30
same,Soybean plant response rating,[10]; [29],30
same,"Plant response rating, Soybean",[10]; [30],0
same,Wheat plant response rating,[11]; [29],0
same,"Plant response rating, Wheat",[11]; [30],0
same,"Plant response rating, Barnyardgrass","[12]; 500 g ai/ha, postemergence",20
same,"Plant response rating, Barnyardgrass","[12]; Postemergence, 125 g ai/ha",10
same,"Plant response rating, Blackgrass","[13]; 500 g ai/ha, postemergence",20
same,"Plant response rating, Blackgrass","[13]; Postemergence, 125 g ai/ha",0
same,"Plant response rating, Corn","[14]; 500 g ai/ha, postemergence",10
same,"Plant response rating, Corn","[14]; Postemergence, 125 g ai/ha",10
same,"Plant response rating, Foxtail, Giant","[15]; 500 g ai/ha, postemergence",50
same,"Plant response rating, Foxtail, Giant","[15]; Postemergence, 125 g ai/ha",20
same,"Plant response rating, Kochia","[16]; 500 g ai/ha, postemergence",30
same,"Plant response rating, Kochia","[16]; Postemergence, 125 g ai/ha",10
same,"Plant response rating, Oat, Wild","[17]; 500 g ai/ha, postemergence",0
same,"Plant response rating, Oat, Wild","[17]; Postemergence, 125 g ai/ha",0
same,"Plant response rating, Pigweed, Palmer","[18]; 500 g ai/ha, postemergence",60
same,"Plant response rating, Pigweed, Palmer","[18]; Postemergence, 125 g ai/ha",10
same,"Plant response rating, Ragweed","[19]; 500 g ai/ha, postemergence",20
same,"Plant response rating, Ragweed","[19]; Postemergence, 125 g ai/ha",0
same,"Plant response rating, Ryegrass, Italian","[20]; 500 g ai/ha, postemergence",30
same,"Plant response rating, Ryegrass, Italian","[20]; Postemergence, 125 g ai/ha",10
same,"Plant response rating, Soybean","[21]; 500 g ai/ha, postemergence",100
same,"Plant response rating, Soybean","[21]; Postemergence, 125 g ai/ha",90
same,"Plant response rating, Wheat","[22]; 500 g ai/ha, postemergence",20
same,"Plant response rating, Wheat","[22]; Postemergence, 125 g ai/ha",10
same,"Plant response rating, Galium","[23]; 500 g ai/ha, postemergence",50
same,"Plant response rating, Galium","[23]; Postemergence, 125 g ai/ha",50
same,"Plant response rating, Horseweed","[24]; 500 g ai/ha, postemergence",0
same,"Plant response rating, Horseweed","[24]; Postemergence, 125 g ai/ha",0
same,"Plant response rating, Barnyardgrass (Flood)",[25],0
same,"Plant response rating, Ducksalad (Flood)",[26],35
same,"Plant response rating, Rice (Flood)",[27],0
same,"Plant response rating, Sedge, Umbrella (Flood)",[28],35
